According to publication PMC7751916, “Synthesis and bioactivities of 1-(4-hydroxyphenyl)-2-((heteroaryl)thio)ethanones as carbonic anhydrase I, II and acetylcholinesterase inhibitors” (Turkish Journal of Chemistry, 2020):

Columns and labels:
hCA I = hCA I (Homo sapiens, UniProt P00915); experiment: CAs inhibition assay (esterase activity, p-nitrophenyl acetate); assay type: biochemical
From the text: Human CA isoforms (hCAI and hCAII) were purified by the Sepharose - 4B - L - tyrosine - sulfanilamide affinity segregation method as reported. […] Inhibitory effects of the compounds were investigated by measuring the esterase activity according to Verpoorte et al. as described in previous. […] All chemicals were purchased from Sigma-Aldrich Chemie GmbH.

hCA II = hCA II (Homo sapiens, UniProt P00918); experiment: as above; assay type: biochemical
Method: Human CA isoforms (hCAI and hCAII) were purified by the Sepharose - 4B - L - tyrosine - sulfanilamide affinity segregation method as reported. Bradford technique was used to measure protein concentrations at 595 nm. Inhibitory effects of the compounds were investigated by measuring the esterase activity according to Verpoorte et al. as described in previous. The hCA activity was determined by measuring the conversion of thep-nitrophenyl acetate substrate to p -nitro phenolate at 348 nm by the spectrophotometer (UV - VIS Spectrophotometer, UVmini-1240, Shimadzu Corporation, Kyoto, Japan). Acetazolamide (AZA) was used as a control drug. Lineweaver–Burk plot was used to calculate inhibition constants (Ki) of the compounds [33]. All chemicals were purchased from Sigma-Aldrich Chemie GmbH.

Chain of hCA I (P00915 whole entry, canonical isoform): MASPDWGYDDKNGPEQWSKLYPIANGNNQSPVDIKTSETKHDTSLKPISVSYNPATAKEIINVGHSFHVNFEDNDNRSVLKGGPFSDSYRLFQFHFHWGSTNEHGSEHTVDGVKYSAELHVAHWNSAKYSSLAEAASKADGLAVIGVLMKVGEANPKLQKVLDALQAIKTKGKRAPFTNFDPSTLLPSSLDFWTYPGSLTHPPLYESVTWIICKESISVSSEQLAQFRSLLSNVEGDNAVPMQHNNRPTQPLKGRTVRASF

O=C(CSc1nc2ccccc2s1)c1ccc(O)cc1 [Compound 1, 2-(Benzo[d]thiazol-2-ylthio)-1-(4-hydroxyphenyl)ethanone]
IC50 (hCA I): 35.4 nM
Ki (hCA I): 14.6 ± 2.06 nM
IC50 (hCA II): 29.4 nM
Ki (hCA II): 8.76 ± 0.84 nM
fold more potent against hCAII than reference AZA (hCA II; based on Ki values): 2.0 fold

O=C(CSc1nc2ccccc2o1)c1ccc(O)cc1 [Compound 2, 2-(Benzo[d]oxazol-2-ylthio)-1-(4-hydroxyphenyl)ethanone]
IC50 (hCA I): 32.8 nM
Ki (hCA I): 8.61 ± 0.9 nM
fold more potent inhibitor against hCAI than reference AZA (hCA I; based on Ki values): 2.5 fold
IC50 (hCA II): 43.6 nM
Ki (hCA II): 23.4 ± 7.13 nM

Cn1ccnc1SCC(=O)c1ccc(O)cc1 [Compound 3, 1-(4-Hydroxyphenyl)-2-((1-methyl-1H-imidazol-2-yl)thio)ethanone]
IC50 (hCA I): 35.2 nM
Ki (hCA I): 17.8 ± 2.08 nM
IC50 (hCA II): 39.8 nM
Ki (hCA II): 31.6 ± 3.29 nM

Cc1nnc(SCC(=O)c2ccc(O)cc2)s1 [Compound 4, 1-(4-Hydroxyphenyl)-2-((5-methyl-1,3,4-thiadiazol-2-yl)thio)ethanone]
IC50 (hCA I): 48.1 nM
Ki (hCA I): 13.8 ± 2.47 nM
IC50 (hCA II): 41.7 nM
Ki (hCA II): 16.9 ± 3.99 nM

Cn1cnnc1SCC(=O)c1ccc(O)cc1 [Compound 5, 1-(4-Hydroxyphenyl)-2-((4-methyl-4 H -1,2,4-triazol-3-yl)thio)ethanone]
IC50 (hCA I): 65.6 nM
Ki (hCA I): 42.6 ± 7.59 nM
IC50 (hCA II): 34 nM
Ki (hCA II): 14.3 ± 5.1 nM

Cn1nnnc1SCC(=O)c1ccc(O)cc1 [Compound 6, 1-(4-Hydroxyphenyl)-2-((1-methyl-1 H -tetrazol-5-yl)thio)ethanone]
IC50 (hCA I): 62.5 nM
Ki (hCA I): 14.4 ± 3.71 nM
IC50 (hCA II): 57.3 nM
Ki (hCA II): 27.4 ± 11.8 nM
